“Also recorded” adds a separate entry of the source.

The subject of experiment [1] is intestinal biopsies from celiac patients. The experiment in a line: Organ culture of celiac duodenal mucosa with gliadin PT digest, immunolocalization of immune activation labels (CD25+, ICAM1, HLA-DR). In kind it is cell-based, human. The procedure:
(§1) Duodenal mucosa samples have been treated in vitro for 3 and 24 hours using medium, gliadin PT digest (500 μg/mL), p31-43 (20 μg/ml), pRPQ (10 μg/ml). P7mer and pTPO (10 μg/ml) have been used in all the experiments as control peptides.
(§2) 4 μm thick sections of frozen biopsy samples from celiac patients have been fixed in acetone for 10 minutes. Then sections have been incubated for 2 hours at room temp. with following antibodies: anti-phospho-tyrosine PY99 mAb (1:80, IgG2b; Saint Cruz Biotechnology, Saint Cruz, Calif.), phospho-p42/p44 (1:500, polyclonal Ig; Cell Technology Beverly, USA), ICAM1 (1:500, Abcam, Cambridge, BUT, USA), HLA-DR (1:500, Abcam, Cambridge, BUT, USA). Antigene expression and distribution thereof within biopsy sample have been visualized by indirect immunofluorescence as previously described. Monoclonal isotype control (IgG1 and IgG2) has been used as control. Samples have been analyzed using Zeiss LSM510 confocal laser scanning unit (Carl Zeiss, Germany).

The subject of experiment [2] is biopsies from celiac subjects. The experiment in a line: Organ culture of celiac duodenal mucosa with p31-43, immunolocalization of Py99 and phospho-p42/p44. In kind it is cell-based, human. Here is the method:
as §1, §2

Experiment [3] relates to K562(S) cells. The experiment in a line: K562(S) cell agglutination test. The conditions noted are these: for (Δ) O.D. (protecting activity): incubated together with p31-43; for protecting activity towards p31-43 induced agglutination of K562 cells: with p31-43. Type of experiment: cell-based, human. The procedure: K562(S) cells, an immature subclone of a cell line from a blastic phase chronic myelogenous leukemia patient, are cultured under 5% CO2 atmosphere at 37° C. in RPMI (Gibco, supplied by Invitrogen, Carlsbad, Calif., USA) containing 4.5 g/L glucose, 2 mM L-glutamine, 50 U/ml penicillin, […] streptomycin, 1% essential amino acids, 1% HEPES and 10% bovine fetal serum (FBS).
K562(S) cells to be used for agglutination test have been collected by centrifugation and washed two times with calcium and magnesium free PBS. Then cells have been resuspended at concentration of 10^8 cells/ml in PBS; […] of cell suspension added to each well of a 96 well plate. The peptide has been added at a concentration of 10 μg/ml. The final total volume has been 100 μl. Cell suspension has been incubated at room temp. for 30 minutes. Agglutination rate has been measured using a 96 well plate reader equipped with stirrer. Turbidity of cellular suspension has been measured at 600 nm (OD600 nm) under continuous stirring at 0 and 30 min times. The difference of T0 and T30 readings has been taken as agglutination rate (CV).

Another experiment relates to ICAM-1 in T84 cells. The experiment in a line: Western blotting for expression of ICAM-1 in T84 cells. In kind it is cell-based, human. The note with it: 24 hours; for ICAM-1 level in T84 cells: peptide alone, 20 μg/ml, compared to medium only; for ICAM-1 level in T84 cells exposed to p31-43: peptide together with p31-43, 20 μg/ml each. The procedure: T84 human colonic carcinoma cells have been cultured under 5% CO2 atmosphere at 37° C. in 50% DMEM, (Gibco, supplied by Invitrogen, Carlsbad, Calif., USA) and 50% […] containing 4.5 g/L glucose, 2 mM L-glutamine, 50 U/ml penicillin, […] streptomycin, 1% essential amino acids, 1% HEPES and 10% bovine fetal serum (FBS).
T84 cells have been treated with p31-43 peptide in absence and presence of pRPQ, pDAV, p7mer (at peptide concentration of 20 μg/ml) and culture medium only (like negative control) for 24 hours at 37° C.
For WB analysis, T84 cells have been seeded at a concentration of 1×10^5 cells/ml in 12 well plate and shortly treated before confluence was reached. Treatment has been carried out using 20 μg/ml of medium for each peptide (p31-43, p7mer, pDAV, pRPQ) for 24 hours. In order the protecting activity of pDAV and pRPQ towards toxic effect of p31-43 to be tested, a pre-incubation for 3 hours using these peptides before the exposure to p31-43, has been performed. After incubation, cells have been treated with buffer containing 150 mM NaCl, 0.05% sodium dodecyl sulfate (SDS) and 1% Triton X-100. This mixture then has been centrifuged for 5 minutes at 4° C. Protein concentration has been measured according to […]. SDS-(Polyacryl amide Gel Electrophoresis) has been carried out using 4% and 7.5% gel. […] of protein have been loaded for each gel run. Then the proteins have been transferred on nitrocellulose membrane (Biorad). Membranes have been incubated overnight with mice anti-ICAM-1 monoclonal Abs (Abcam, Cambridge, UK) at 1:250 dilution. Successively, after washings, said membrane have been incubated with secondary antibody (peroxidase HRP:3000; Biorad). Membrane occurring proteins are detected using chemiluminescent detection kit (Biorad), according to producer instructions. Blot intensity of protein bands has been evaluated by Biorad ChemiDoc densitometer.
(In general: A western blot detects proteins with antibodies after separation by electrophoresis.)

Experiment [4] relates to K562(S) cells. The note with it: earlier studies (6-9); cited from earlier work.
For the next experiment, the system named is TG2. As to the kind of experiment: In situ determination of TG2 activity in duodenal mucosa from celiac patients. In kind it is cell-based, human. The conditions noted are these: co-incubation with p31-43, biopsies from celiac subjects. The procedure: as §1
7 μm diameter sections have been collected on slide, pre-incubated with buffer (965 ml of 100 mmol/L Tris-HCl, pH 7.4, […] of 200 mmol/L CaCl2) for 15 minutes, and then pre-incubated with same buffer added with 10 ml of 10 mmol/L of biotinylated mono-dansylcadaverine (bio-MDC) (Molecular Probes, Leiden, The Netherlands) for 1 hour at room temp. The reaction is stopped using 25 mmol/L of EDTA for 5 minutes, then sections have been fixed in 4% paraformaldeide for 10 minutes. Labelled substrate incorporation has been visualized by incubation with streptavidin-conjugated RPE (1:50; Dako) for 30 minutes. Sections have been visualized fluorescently using Axioxop Zeiss 2 Plus micropurpose (Zeiss, Jena, Germany).

The mark [5] stands for this setting: 10 μg/ml, difference of O.D at 600 nm at 0 and 30 minutes ×100, K562(S) cells.
Where [6] appears, read: 500 μg/ml gliadin PT digest, 10 μg/ml peptide.
Setting [7] is: p31-43 20 μg/ml, peptide 10 μg/ml.

As to “LDPLIRGILLARPAKL QV (SEQ ID NO: 16) (LDPLIRGILLARPAKLQV; control irrilevant peptide) [TPO control peptide, control irrelevant peptide, reference compound]”, the “protecting effect against the activation induced by gliadin” value in experiment [1] (duodenal biopsies) was “lacking of any protecting effect”. Further, the “protecting effect against the activation induced by p31-43” value in experiment [2] (duodenal biopsies) is “lacking of any protecting effect”.

Regarding “QQPQDAVQPF (SEQ ID NO: 1) (mutated omega-secalin peptide) [pDAV, decapeptide identified earlier in wheat peptic-triptic digest (WO9727217)]”, the “(Δ) O.D. (protecting activity)” value with K562(S) cells [3] (setting [5]) is −12 ± 1.9. In addition, in the experiment on K562(S) cells [3], the “protecting activity towards p31-43 induced agglutination of K562 cells” value was “prevent p31-43 induced agglutination”. In the experiment on ICAM-1 in T84 cells, the “ICAM-1 level in T84 cells” value is listed as “No meaningful increase” and the “ICAM-1 level in T84 cells exposed to p31-43” value (from here on “ICAM-1 level … to p31-43”) is given as “ICAM-1 levels similar to cells exposed only to culture medium”. Also, in the experiment with K562(S) cells [4], the “prevention of agglutination of K562(S) cells by gliadin peptides” value is recorded as “suitable to prevent the agglutination of K562(S) cells by gliadin peptides”.

For “QQPQQPF (SEQ ID NO: 3) (toxic gliadin peptide from aa 139 to aa 145 of omega-gliadin sequence having accession number AAT74547) [p7mer, 7mer peptide shared by pDAV and pRPQ, known to be toxic in CD, reference compound]”, the “(Δ) O.D. (protecting activity)” value with K562(S) cells [3] (setting [5]) turned out to be 1.5 ± 1.1. In addition, the “agglutinant activity towards K562 cells” value in the experiment with K562(S) cells [3] (peptide alone) is reported as “displays also agglutinant activity”. Moreover, the “(Δ) O.D. (agglutinating activity)” value in the experiment on K562(S) cells [3] (peptide alone, 10 μg/ml, difference of O.D at 600 nm at 0 and 30 minutes ×100, K562(S) cells) stood at 1.0 ± 0.3. In addition, the “protecting activity towards p31-43 induced agglutination of K562 cells” value in the experiment with K562(S) cells [3] is given as “does not display any protecting effect”. In the experiment on ICAM-1 in T84 cells, the “ICAM-1 level in T84 cells” value was “increases ICAM-1 intracellular levels” and the “ICAM-1 level … to p31-43” value is given as “does not exert any anti-inflammatory effect”. Moreover, in the experiment with ICAM-1 in T84 cells (listed as 7mer), the “ICAM-1 level in T84 cells” value is on record as “poor increase” and the “ICAM-1 level … to p31-43” value is “no meaningful decrease”.

Regarding “QQPQGGGQPF (SEQ ID NO: 13) (peptide corresponding to SEQ ID NO4 sequence wherein X is three G) [pGGG]”, in the experiment on K562(S) cells [3] (setting [5]), the “(Δ) O.D. (protecting activity)” value is −7.9 ± 1.4. Moreover, the “protecting activity towards p31-43 induced agglutination of K562 cells” value with K562(S) cells [3] is listed as “displayed a protecting activity”.

Consider “QQPQWQPF (SEQ ID NO: 15) (peptide corresponding to SEQ ID NO4 sequence wherein X is W) [pW]”, for which the “(Δ) O.D. (protecting activity)” value in the experiment on K562(S) cells [3] (setting [5]) was −9.1 ± 2.3.

Consider “QQPQRPQQPF (SEQ ID NO: 2) (peptide corresponding ro omega-secalin from aa 218 to aa 227 codified by the sequence deposited at NCBI with accession number FJ823438) [pRPQ]”, for which the “(Δ) O.D. (protecting activity)” value with K562(S) cells [3] (setting [5]) is −9.8 ± 1.7. In the experiment on K562(S) cells [3], the “protecting activity towards p31-43 induced agglutination of K562 cells” value is “prevent p31-43 induced agglutination”. Moreover, in the experiment with ICAM-1 in T84 cells, the “ICAM-1 level in T84 cells” value is reported as “No meaningful increase” and the “ICAM-1 level … to p31-43” value was “ICAM-1 levels similar to cells exposed only to culture medium”. In experiment [1] (setting [6]), the “gliadin induced increase of HLA-DR expression in mucosa” value was “meaningfully prevents; also recorded: suitable to control”, the “gliadin induced increase of ICAM1 expression in mucosa” value is listed as “meaningfully prevents; also recorded: suitable to control” and the “gliadin induced increase of T CD25+ cells within lamina propria” value is “suitable to control”. Also, the “mucosa immunity stimulating activity” value in experiment [1] (peptide alone, duodenal biopsies from both celiac and healthy control subjects, data not shown) is “lacking in mucosa immunity stimulating activity”. Further, in experiment [2] (setting [7]), the “expression increase of Py99” value was “meaningfully prevents” and the “p42/44 phosphorylation induced by p31-43” value was “meaningfully prevents; also recorded: prevents the increase”. The “p31-43-induced TG2 activity” value in the experiment on TG2 is “completely inhibited”. In the experiment with TG2 (listed as RPQ peptide), the “p31-43-induced TG2 activity” value is given as “meaningfully prevents”.

On to “QQPQYYYQPF (SEQ ID NO: 14) (peptide corresponding to SEQ ID No4 sequence wherein X is three Y) [pYYY]”, for which the “(Δ) O.D. (protecting activity)” value with K562(S) cells [3] (setting [5]) was −7 ± 2.5. In the experiment on K562(S) cells [3], the “protecting activity towards p31-43 induced agglutination of K562 cells” value was “little higher protecting activity than pGGG”.
